Series [1] deals with NK1R, NK2R and NK3R. The following applies: cited from earlier work.
For series [2], the system named is humans. The following applies: cited from earlier work.
Series [3] has as its system mice. Description: Saccharin-conditioned taste avoidance. The format is in vivo, mouse. The following applies: 0.15% saccharin, s.c. 325 nmol kg^−1 EB1002 or 10 nmol kg^−1 semaglutide, n = 10 per group.

Take neurokinin A (4–10)-S5K/L9mL/M10Nle: in series [1], the NK2R selectivity result is recorded as “some degree of selectivity”.
As to retatrutide, in series [2], the average weight loss entry was “up to 22.1%”.
Consider `CC[C@H](C)[C@H](NC(=O)[C@H](Cc1ccccc1)NC(=O)[C@H](CCC(=O)O)NC(=O)[C@H](CCCCNC(=O)COCCOCCNC(=O)COCCOCCNC(=O)CC[C@H](NC(=O)CCCCCCCCCCCCCCCCC(=O)O)C(=O)O)NC(=O)[C@H](C)NC(=O)[C@H](C)NC(=O)[C@H](CCC(N)=O)NC(=O)CNC(=O)[C@H](CCC(=O)O)NC(=O)[C@H](CC(C)C)NC(=O)[C@H](Cc1ccc(O)cc1)NC(=O)[C@H](CO)NC(=O)[C@H](CO)NC(=O)[C@@H](NC(=O)[C@H](CC(=O)O)NC(=O)[C@H](CO)NC(=O)[C@@H](NC(=O)[C@H](Cc1ccccc1)NC(=O)[C@@H](NC(=O)CNC(=O)[C@H](CCC(=O)O)NC(=O)C(C)(C)NC(=O)[C@@H](N)Cc1cnc[nH]1)[C@@H](C)O)[C@@H](C)O)C(C)C)C(=O)N[C@@H](C)C(=O)N[C@@H](Cc1c[nH]c2ccccc12)C(=O)N[C@@H](CC(C)C)C(=O)N[C@H](C(=O)N[C@@H](CCCNC(=N)N)C(=O)NCC(=O)N[C@@H](CCCNC(=N)N)C(=O)NCC(=O)O)C(C)C` [semaglutide], for which the conditioned taste avoidance result in series [3] is recorded as “aversive”.
For the compound survodutide, the average weight loss result in series [2] was “up to 14.9%”.
